# “Also recorded” adds a separate entry of the source. Like-named read-outs stand apart in the source and are kept apart here.
# What was measured:
# Galectin-3 [1] = molecular target: T1, Galectin-3 (Homo sapiens, UniProt P17931); conditions: SKOV-3 cells, 2 μM 33DFTG for 3 days; Galectin-3 10 μg/ml; control treatment 1940
# Experimental: (§1) After the incubation, cells were stained with Alexa Fluor 488-conjugated human recombinant Galectin-1, and Alexa Fluor 488-conjugated human recombinant Galectin-3 (both from Abcam, Cambridge, United Kingdom; and both at 10 μg/ml) for 45 minutes at +4° C. Cells were washed and stored on ice in the dark until analysed by FACSAriaII flow cytometer.
# Galectin-1 [2] = molecular target: T2, Galectin-1 (Homo sapiens, UniProt P09382); assay: Alexa Fluor 488-Galectin-1 binding to SKOV-3 cells by FACS; format: cell-based
# T2 construct: purchased Abcam, Cambridge, United Kingdom
# T2 sequence (P09382 whole entry): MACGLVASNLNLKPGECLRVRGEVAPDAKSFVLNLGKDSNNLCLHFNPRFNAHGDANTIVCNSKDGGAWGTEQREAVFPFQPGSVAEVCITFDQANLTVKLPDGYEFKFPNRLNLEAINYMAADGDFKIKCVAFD
# Experimental: as §1
# egg embryos = assay: in vivo CAM trial: embryo viability (toxicity)
# Experimental: (§2) The study was performed by Inovotion SAS (La Tronche, France). Fertilized chicken eggs were incubated at 37.5° C. with 50% relative humidity for 9 days (E9), when the chorioallantoic membrane (CAM) was dropped down by drilling a small hole through the eggshell into the air sac, and a 1 cm^2 window was cut in the eggshell above the CAM. The NCI-N87 cell line was cultivated in RPMI-1640 medium supplemented with 10% FBS and 1% penicillin/streptomycin. On day E9, cells were detached by trypsin, washed with complete medium and suspended in graft medium. An inoculum of 2 million cells was added onto the CAM of each egg. […] Living grafted eggs were randomized into groups and were then treated on day E10, E11.5, E13, E14.5 and E17 (five doses) by dropping 100 μl of vehicle (PBS) and compounds (alone or in combination) onto the tumor. On day 18 (E18) the upper portion of the CAM was removed, washed in PBS and then directly transferred in PFA (fixation for 48 h). The tumors were then carefully cut away from normal CAM tissue and weighed. Eggs were checked at each treatment time, or at least every two days, for viability during the study. At the end of the study, the number of dead embryos was counted and combined with the observation of eventual visible macroscopic abnormalities (observation done during the sample collection) to evaluate the toxicity.
# Galectin-3 [3] = molecular target: T1, Galectin-3; conditions: HSC-2 cells, 2 μM 33DFTG for 2 days; control treatment 1247
# Experimental: as §1
# (§3) In parallel, untreated cells were cultured in normal cell culture medium. For flow cytometry analysis, cells were detached with trypsin, washed, and stained with AlexaFluor488-conjugated Galectin-1 and Galectin-3 proteins as above. FACS was performed as above.
# [4] = tested on: NCI-N87 cancer cell line tumors; assay: in vivo trial, cancer cell xenografts on chicken egg chorioallantoic membrane (CAM): tumor weight; conditions: for Mean tumor size: five doses E10-E17, 1.5 mg/kg pembrolizumab, 1.8 mg/kg 33DFTG, weighed E18, PBS control 30.6
# Experimental: as §2
# Galectin-1 [5] = molecular target: T2, Galectin-1; assay: Alexa Fluor 488-Galectin-1 binding to HSC-2 cells by FACS; format: cell-based
# Experimental: as §1, §3
# T1 sequence (P17931 whole entry): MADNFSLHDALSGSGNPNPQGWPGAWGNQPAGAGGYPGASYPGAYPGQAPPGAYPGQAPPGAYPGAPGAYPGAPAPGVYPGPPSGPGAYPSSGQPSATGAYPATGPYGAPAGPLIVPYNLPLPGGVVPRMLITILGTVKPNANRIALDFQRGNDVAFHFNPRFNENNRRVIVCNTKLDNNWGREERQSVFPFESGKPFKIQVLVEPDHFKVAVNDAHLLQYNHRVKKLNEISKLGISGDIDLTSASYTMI
Compound,"Mean fluorescence intensity, Galectin-3 (Galectin-3 [1])",binding of Galectin-1 to the cells (in words) (Galectin-1 [2]; 2 μM 33DFTG),"Mean fluorescence intensity, Galectin-1 (Galectin-1 [2]; 2 μM 33DFTG for 3 days, Galectin-1 10 μg/ml, control treatment 439)","% alive (egg embryos; chicken, in vivo, 8 days) [%]","Mean fluorescence intensity, Galectin-3 (Galectin-3 [3])",Mean tumor size [4] [mg],binding of Galectin-1 to the cells (in words) (Galectin-1 [5]; 2 μM 33DFTG),"Mean fluorescence intensity, Galectin-1 (Galectin-1 [5]; 2 μM 33DFTG for 2 days, control treatment 521)","% alive (egg embryos; egg embryos at end of study, PBS control 81) [%]",tumor size / therapeutic efficacy compared to control group (in words) ([4]; repeated dose)
"OC[C@H]1O[C@@H](S[C@@H]2O[C@H](CO)[C@H](O)[C@H](n3cc(-c4cccc(F)c4)nn3)[C@H]2O)[C@H](O)[C@@H](n2cc(-c3cccc(F)c3)nn2)[C@H]1O [33DFTG, 3,3′-dideoxy-3,3′-bis-[4-(3-fluorophenyl)-1H-1,2,3-triazol-1-yl]-1,1′-sulfanediyl-di-β-D-galactopyranoside]",165,effective inhibition; also recorded: clearly decreased,186,64,129,35.8,effective inhibition; also recorded: clearly decreased,226,,
"Pembrolizumab: pembrolizumab (Keytruda, Merck)",,,,,,33.5,,,73,neither pembrolizumab alone or 33DFTG alone showed significant difference
